Data on 1 compound can be found in US20180200223A1, “APPLICATION OF NARINGENIN AND NARINGIN IN TUMOR RADIOTHERAPY” (INSTITUTE OF BIOPHYSICS CHINESE ACADEMY OF SCIENCES, priority 2015, published 2018).

Assay [1] concerns 4T1 breast tumor with lung metastasis. Nature of the assay: Survival of mice bearing 4T1 breast tumor with lung metastasis after radiotherapy. The format is in vivo, Balb/c mice. The procedure: (1) Resuscitation and culture of 4T1 cells: Cell culture hood need to be sterilized by UV for 30 min before resuscitating the 4T1 cells. Equilibrate the RPMI 1640 culture medium (containing 10% fetal bovine serum) to room temperature for further application. The cryovial containing tumor cells are taken from liquid nitrogen storage and immediately put into a 37° C. water bath, shaking quickly until the cells are completely dissolved. Transfer the cells into a cell culture flask with 10-15 ml medium to suspend the sedimentary cells. After adjusting the concentration of the cells, culture the cells in an incubator with a saturated humidified atmosphere containing 5% (v/v) CO2 at 37° C. Replace fresh medium every day during. Digest the cells by 0.25% trypsin when the convergence of the cells reaches 90%, and then subculture the cells at a ratio of 1:3. On the day of experiment, we collect the cells by digesting the cells with 0.25% trypsin, then neutralize the trypsin with RPMI 1640 with 10% fetal bovine serum. Centrifuge the cells at 800 rpm, and then resuspend the cells in sterile PBS. After counting the density of cells, adjust the cells to 1×10^5/ml for tumor cells inoculation. (2) 4T1 cells are mixed well before inoculation. Pipet 0.3 ml of cells by a 1 ml sterile syringe, and inject 0.1 ml of cells per mouse (namely 1×10^4 4 T1 cells per mouse). (1) 4T1 murine breast tumor cell line was intravenously injected to form lung metastatic tumors in Balb/c mice. Lung metastatic nodules would develop about 10-15 days after 1×10^4 4 T1 cells were inoculated. (2) Set the day of inoculation as day 0, at day 12 after inoculation, different doses of naringenin (Nar), namely 50, 100 and 200 mg/kg (suspended in 1% CMC-Na), were administered orally. The mice received γ-ray irradiation (8 Gy×2 f) at day 14 and day 15 after inoculation. […] The administration of either naringenin or dexamethasone plus cefixime continued until the mice started to die, and the survivals were observed and recorded. […]

Assay [2] deals with LLC lung tumor. Nature of the assay: LLC lung tumor bearing mice with lung irradiation. The format is in vivo, C57B6/L mice. An excerpt: (1) LLC murine lung cancer cell line was used to intravenously inoculate the C57B6/L mice to form lung metastatic tumors. About 24 days after 5×10^5 LLC cells were inoculated, nodules in the lung would develop. (2) The mice were divided into 4 groups, and each group contains 10 mice. The grouping methods are as followed: 1) Normal control group (Normal); 2) LLC tumor-bearing mice without irradiation group (LLC); 3) LLC tumor-bearing mice receiving lung irradiation without naringenin administration group (LLC+IR); 4) LLC tumor-bearing mice receiving lung irradiation with naringenin (Nar) administration group (LLC+IR+Nar); Set the day of inoculation as day 0. (6) 100 mg/kg naringenin (Nar) (suspended in 1% CMC-Na) was administered orally to each of the mice in LLC+IR+Nar group at day 12 after inoculation (namely 3 days before lung irradiation); (7) The mice received γ-ray irradiation with a dose of 12 Gy per mouse per time at day 14 after inoculation; (8) Continue to orally administrate 100 mg/kg naringenin (Nar) (suspended in 1% CMC-Na) to each of the mice in LLC+IR+Nar group at day 15 day after inoculation (namely 1 day after lung irradiation); (9) At day 21 after inoculation, 5 animals in each group were randomly selected for sample collection. After dissection, the blood and lung tissues were collected, and the lungs were weighed. Then the number of tumor nodules in the lungs were counted without destroying the complete structure of lung tissues. (10) At day 37 after inoculation, the remaining animals in each group were sacrificed and dissected. The blood and lung tissues were collected, and the lungs were weighed. Then the number of tumor nodules in the lungs were counted without destroying the complete structure of lung tissues. Serum was separated and assayed for inflammatory cytokines such as IL-6, IL-113, IFN-γ, etc. The lung tissues were used for biopsy and the observation of lung injury and inflammatory cells infiltration. […]

Assay [3] deals with inflammatory cytokine IL-1β. Description: DNA fragment-induced IL-1β release from primary peritoneal macrophages (ELISA). The class given is cell-based, mouse. As to conditions: 100 μM pretreatment 2 h, DNA fragments 100 ng/mL 24 h, supernatant ELISA. The procedure: 4% Brewer thioglycollate medium (1.5 ml/mouse) was intraperitoneally injected. Four days later, washing the abdominal cavity of these mice with serum-free medium (DMEM) (10 ml/mouse). The lavage fluids were collected and centrifuged at 1300 rpm for 5 minutes. The cell pellet was resuspended and seeded into a 24-well plate at the concentration of 2×10^6 cells/well. Two hours later, the non-adherent cells were carefully removed and the remaining adherent cells are primary peritoneal macrophages. Identification: Macrophage surface marker F4/80 was detected by flow cytometry using PE-labelled anti-F4/80 antibody (ebioscience). […] Sample treatment: The macrophages were pretreated with 100 μM naringenin (Nar) for 2 h, and then were stimulated with DNA fragments (100 ng/mL) for 24h. The supernatants were collected and the concentration of inflammatory cytokine IL-1β (pg/mL) in the supernatant was measured by ELISA.
In general terms: An ELISA detects its analyte on a solid surface through an enzyme-linked reagent.

The test system of assay [4] is 4T1 breast tumor with lung metastasis. Nature of the assay: 4T1 breast tumor lung metastasis mice with lung irradiation: lung injury, nodules, cytokines. The class given is in vivo, Balb/C mice. The procedure: (1) Resuscitation and culture of 4T1 cells: Cell culture hood need to be sterilized by UV for 30 min before resuscitating the 4T1 cells. Equilibrate the RPMI 1640 culture medium (containing 10% fetal bovine serum) to room temperature for further application. The cryovial containing tumor cells are taken from liquid nitrogen storage and immediately put into a 37° C. water bath, shaking quickly until the cells are completely dissolved. Transfer the cells into a cell culture flask with 10-15 ml medium to suspend the sedimentary cells. After adjusting the concentration of the cells, culture the cells in an incubator with a saturated humidified atmosphere containing 5% (v/v) CO2 at 37° C. Replace fresh medium every day during. Digest the cells by 0.25% trypsin when the convergence of the cells reaches 90%, and then subculture the cells at a ratio of 1:3. On the day of experiment, we collect the cells by digesting the cells with 0.25% trypsin, then neutralize the trypsin with RPMI 1640 with 10% fetal bovine serum. Centrifuge the cells at 800 rpm, and then resuspend the cells in sterile PBS. After counting the density of cells, adjust the cells to 1×10^5/ml for tumor cells inoculation. (2) 4T1 cells are mixed well before inoculation. Pipet 0.3 ml of cells by a 1 ml sterile syringe, and inject 0.1 ml of cells per mouse (namely 1×10^4 4 T1 cells per mouse). (1) 4T1 murine breast tumor cell line was used to inoculate the tail vein of Balb/C mice to form lung metastatic tumors. 1×10^4 4 T1 cells were intravenously injected into the tail vein per mouse, and 10-15 days later nodules would develop in lung. (2) Set the day of inoculation as day 0. 200 mg/kg naringenin (Nar) (suspended in 1% CMC-Na) was administered orally to the mice at day 12 day after inoculation, namely 3 days before irradiation on the lungs. The mice received a 12 Gy of γ-ray irradiation once at day 14 after inoculation and keep naringenin administration. A part of the mice in each group were sacrificed at day 28 after inoculation and the blood, lung tissues were collected while the lungs were weighed. The tumor nodules in the lungs were observed under the condition of without destroying the integrity of lung tissues. Serum were separated and assayed for cytokines such as IL-6, IL-113, IFN-γ, etc. The lung tissues collected at day 28 after inoculation were used for biopsy and the observation of lung injury as well as inflammatory cells infiltration. The rest animals were used for survival observation. The mice in this experiment are separated into 4 groups as follows: • 1) Normal control group (Normal) • 2) 4T1 tumor-bearing mice without irradiation group (4T1) • 3) 4T1 tumor-bearing mice receiving lung irradiation without naringenin administration group (4T1+IR) • 4) 4T1 tumor-bearing mice receiving lung irradiation with naringenin administration group (4T1+IR+Nar) 3 groups of mice were inoculated with 4T1 tumor cells. Each group contains 12 mice with half male and half female which were fed in separate cages, and each cage contains 6 mice.

Assay [5] in a line: Total antioxidant capacity (FRAP method). As to conditions: 27 μM, absorbance 593 nm. The procedure:
The total antioxidant capacity of several flavonoids was detected by the total antioxidant capacity test kit (FRAP method). The principle of the FRAP method is that the antioxidant can reduce ferric-tripyridyltriazine (Fe^3+-TPTZ) to produce a blue Fe^2+-TPTZ under an acidic condition. Measuring the blue Fe^2+-TPTZ at a wavelength of 593 nm to access the antioxidant capacity of the sample. Since the reaction is carried out under an acidic condition, some of the endogenous interference factors can be excluded. (1) Prepare proper amount of FRAP working solution according to the samples numbers referring to the following table. The FRAP working solution was incubated at 37° C. and used no longer than 1-2 hours. Prepare 10 species of flavonoids: quercetin (Que), daidzein (Dai), kaempferol (Kae), apigenin (Api), naringenin (Nar), genistein (Gen), hesperidin (Her), luteolin (Lut), chrysin (Chr) and nobiletin (Nob). Make the final concentration of each flavonoid to 27 μM. Dissolve 27.8 mg of FeSO4.7H2O provided by this kit and dilute to 1 ml to make the concentration to 100 mM. Take an appropriate amount of FeSO4 solution and dilute it to 0.15, 0.3, 0.6, 1.2 and 1.5 mM, respectively. Distilled water or sample preparation solution was used for the preparation of the standards. […] (3) Incubate the plate at 37° C. for 3-5 min, and then determine the absorbance at 593 nm. […]

The mark [6] stands for this setting: 200 mg/kg oral, 12 Gy γ-ray, compared to 4T1+IR group.

For the compound `O=C1C[C@@H](c2ccc(O)cc2)Oc2cc(O)cc(O)c21` [naringenin], the “survival of tumor-bearing mice compared with positive drugs (DXM+CXL)” value in assay [1] (100 mg/kg oral vs dexamethasone 0.25 mg/kg plus cefixime 200 mg/kg) is on record as “improvement in the survival”. Moreover, the “sensitizing/synergizing effect combined with radiotherapy (survival)” value in assay [1] (100 mg/kg oral, compared among the 3 doses) is recorded as “highest sensitizing/synergizing effect”. In addition, the “survival of tumor-bearing mice” value in assay [1] (50, 100 and 200 mg/kg oral, γ-ray 8 Gy×2 f, compared with 4T1+IR group) is “significantly prolonged”. Also, the “number of tumor nodules in lungs” value in assay [2] (100 mg/kg oral, 12 Gy γ-ray at day 14, compared to LLC and LLC+IR group) is on record as “significantly decreased”. For the same compound, the “lung injury (pathological analysis)” value in assay [2] (100 mg/kg oral, 12 Gy γ-ray, LLC+IR+Nar vs LLC+IR) is “significantly alleviated”. In addition, the “survival of mice bearing LLC lung tumor after radiotherapy” value in assay [2] (FIG. 5 legend) was “prolongs the survival”. Also, the “release of inflammatory cytokine IL-1β” value in assay [3] is “significantly reduces”. Also, the “number of tumor nodules in lungs” value in assay [4] (200 mg/kg oral from day 12, 12 Gy γ-ray at day 14, day 28, compared to 4T1 group and 4T1+IR group) is listed as “decreased”. Moreover, the “lung injury and fibrosis (pathological analysis)” value in assay [4] (200 mg/kg oral, 12 Gy γ-ray, day 28, 4T1+IR+Nar vs 4T1+IR) was “markedly alleviated”. For the same compound, in assay [4] (setting [6]), the “serum level of IFN-γ” value was “significantly changed”, the “serum level of IL-1β” value was “significantly changed” and the “serum level of IL-6” value was “significantly changed”. Besides, the antioxidant capacity result in assay [5] is on record as “very weak”.
